Laboratory results reported in US6030960A, “Method of treating hepatitis virus infections” (priority 1998, dated 2000).
Several values for one entry are separate records, joined by “and”; a condition that tells them apart may be missing. Equal values may be shown once.

Assays:
Format in all cases: cell-based
Hepatitis B virus [1] = experiment: Anti-hepatitis B virus activity in HEP-G2 cells persistently infected with HBV (Table 2); conditions: Hepatitis B virus, HepG2, 216 h, 10 μM, 9 days treatment
Procedure: HEP-G2 cells persistently infected with HBV were treated daily with fresh D-MEM containing 20% FBS and 10 μM compound. After 9 days incubation and treatment, the overlay medium was harvested to assay the quantity of Hepatitis B virus s antigen (HBsAg) and HBeAg by EIA (Abbott Laboratories). The overlay medium was diluted to levels of antigen in the linear range of the assay. Standard curves using dilutions of positive HBsAg and HBeAg controls were included in each assay. Virion DNA was assayed using the method set forth in Korba and Gerin, Antiviral Res., 19, 5,5-70 (1992), incorporated by reference herein. HBV DNA was extracted from the overlay medium containing virus particles and analyzed by a slot-blot hybridization technique using ^32 P-labelled 3.2 Kb Eco R1 HBV DNA fragment by comparisons to HBV standards present on nitrocellulose filters using an AMBIS beta scanner. EC90 values (90% effective concentration, i.e., drug concentration which induces a 90% decrease in the levels of HBV DNA replication intermediates in treated versus control cells) were calculated by linear regression analysis. The relative levels of HBsAg, HBeAg and virion DNA were calulated as a percentage of the average levels obtained from the untreated controls.

Hepatitis B virus [2] = experiment: Effect on synthesis of antigen markers in persistently infected human HEP G2 cell cultures (Table 7); conditions: 10 μM, nine days; for activity at 10 µM: Hepatitis B virus, HepG2, 216 h
Procedure: Cells were treated with compound for nine days at 37° C. The overlay medium was harvested to measure levels of HBsAg, HBeAg and virion DNA. HBsAg and HBeAg were assayed by EIA (Abbott Laboratories). Virion DNA levels were measured as described in section B above.

Hepatitis B virus [3] = experiment: Effect of alkyl lipids on HBV replication in HBV persistently infected human HEP G2 cells (Table 6); conditions: for Intracellular HBV DNA, Mono (episomal 3.2-3.8 Kb HBV genomes) / Intracellular HBV DNA, RI (replication intermediates): nine days
Procedure: Cells were treated with a particular compound for nine days at 37° C. Analysis of intracellular HEIV DNA was done 24 hours following the ninth day of treatment. […] The levels of integrated HBV DNA in each cellular DNA preparation were used to calculate the levels of episomal 3.2-3.8 Kb HBV genomes (Mono) and HBV DNA replication intermediates (RI). A zero value indicates an undetectable level of HBV virion DNA. The sensitivity cut-off was 0.1 pg DNA/ml of culture medium.

[4] = Cytotoxicity of alkyl lipids, neutral red dye uptake (Table 1); conditions: human, hep-g2 cells
From the text: (§1) Initially, evaluations of the alkyl lipids were done to determine whether the compounds were cytotoxic to the cells at concentrations having anti-HBV activity. The assay methodology is szt forth in Korba and Germ, Antiviral Res., 19, 55-70 (1992), incorporated by reference herein. Briefly, these cell cytotoxicity evaluations were done in 96-well plates seeded with HEP-G2 cell monolayers. The hepatoblastoma cell line HEP-G2 transfected with a plasmid carrying the gene that confers resistance to […] and four 5'-3' tandem copies of the Hepatitis B virus genome was obtained from Dr. George Acs. Proc. Natl. Acad. Sci. USA, 84, 1005-1009 (1987). Serial concentrations of compound were added to the RPMI-1640 growth medium and the growth medium was added to the 96-well plates containing the cell monolayers. The cells were incubated for a total of nine days at 37° C. The compound-containing medium was periodically replaced. Each compound was tested at four serial concentrations in triplicate. After nine days of treatment and incubation, 0.01% neutral red dye (Sigma, Inc.) was added to the overlay medium. Cell cytotoxicity was quantitated by measuring the average A510. Values in Table 1 represent the percentage of average A510 values (±standard deviation) relative to nine non-treated control wells.

[5] = Cytotoxicity in HBV persistently infected human HEP G2 cells, neutral red dye uptake (Table 5); conditions: human, hep-g2 cells, % of Control Neutral Red Dye Uptake
From the text: as §1
(§2) An analysis was periormed to determine the cytotoxicity of the following compounds in human HEP-G2 cells persistently infected with HBV: CP-51, CP-49, CP-9, CP-126, lyso PAF and CP-7. 2'-3'-Dideoxycytidine (ddC) was used as a control in this cytotoxicity analysis. The toxicity analyses were performed in 96-well flat bottomed tissue culture plates following the same procedure set forth in Example 6 above. Each compound was tested at four concentrations, each in triplicate cultures. Uptake of neutral red dye was used to determine the relative level of toxicity. The absorbance of internalized dye at […] (A510) was used for the quantitative analysis.
(§3) Values are presented as a percentage of the average A510 values (± standard deviations) in ninz separate cultures of untreated cells maintained on the same 96-well plate as the test compounds. The percentage of dye uptake in the nine control cultures was 100±1.

[6] = system: HEP G2 cells persistently infected with HBV; experiment: as above
From the text: as §1, §2, §3

[7] = read-out: Relative Level of HBeAg
[8] = read-out: Relative Level of HBsAg
[9] = read-out: Relative Level of Virion DNA

Molecule `CCCCCCCCCCCCCCCCSCC(C[N+](C)(C)CCO)OC` (racemic) [CP-7, N-[rac-3-(hexadecylthio)-2-methoxy-1-propyl]-N,N-dimethyl-N-(2-hydroxyethyl) ammonium bromide] has an activity at 10 µM (Hepatitis B virus [1]; [7]) of 43%, an activity at 10 µM (Hepatitis B virus [1]; [8]) of 74% and an activity at 10 µM (Hepatitis B virus [1]; [9]) of 10%. For the same molecule, the “Relative Level of HBeAg” value (Hepatitis B virus [2]; 12960 min) was 40 % of Untreated Control, the “Relative Level of HBsAg” value (Hepatitis B virus [2]; 12960 min) was 69 % of Untreated Control and the “Relative Level of Virion DNA” value (Hepatitis B virus [2]; 12960 min) was 10 % of Untreated Control. It also gave an activity at 10 µM (Hepatitis B virus [2]; [7]) of 46%, an activity at 10 µM (Hepatitis B virus [2]; [8]) of 79% and an activity at 10 µM (Hepatitis B virus [2]; [9]) of 9%. The “HBV Virion DNA” value (Hepatitis B virus [3]; 0.1 μM, Day 0) was 51 pg/ml Culture Medium and 77 pg/ml Culture Medium and 64 pg/ml Culture Medium, the “HBV Virion DNA” value (Hepatitis B virus [3]; 0.1 μM, Day 3) was 72 pg/ml Culture Medium and 75 pg/ml Culture Medium and 66 pg/ml Culture Medium and 51 pg/ml Culture Medium and the “HBV Virion DNA” value (Hepatitis B virus [3]; 0.1 μM, Day 6) was 58 pg/ml Culture Medium and 65 pg/ml Culture Medium and 98 pg/ml Culture Medium and 75 pg/ml Culture Medium. For the same molecule, the “HBV Virion DNA” value (Hepatitis B virus [3]; 0.1 μM, Day 9) was 57 pg/ml Culture Medium and 89 pg/ml Culture Medium and 84 pg/ml Culture Medium and 76 pg/ml Culture Medium, the “Intracellular HBV DNA, Mono (episomal 3.2-3.8 Kb HBV genomes)” value (“Intracellular HBV DNA, Mono” for short) (Hepatitis B virus [3]; 0.1 μM) was 2.5 pg/μg Cell DNA and 2.6 pg/μg Cell DNA and 2.8 pg/μg Cell DNA and 2.3 pg/μg Cell DNA and the “Intracellular HBV DNA, RI (replication intermediates)” value (“Intracellular HBV DNA, RI” below) (Hepatitis B virus [3]; 0.1 μM) was 73 pg/μg Cell DNA and 62 pg/μg Cell DNA and 57 pg/μg Cell DNA and 76 pg/μg Cell DNA. For the same molecule, the “HBV Virion DNA” value (Hepatitis B virus [3]; 1 μM, Day 0) was 53 pg/ml Culture Medium and 64 pg/ml Culture Medium and 54 pg/ml Culture Medium, the “HBV Virion DNA” value (Hepatitis B virus [3]; 1 μM, Day 3) was 56 pg/ml Culture Medium and 51 pg/ml Culture Medium and 66 pg/ml Culture Medium and 58 pg/ml Culture Medium and the “HBV Virion DNA” value (Hepatitis B virus [3]; 1 μM, Day 6) was 46 pg/ml Culture Medium and 52 pg/ml Culture Medium and 59 pg/ml Culture Medium. The “HBV Virion DNA” value (Hepatitis B virus [3]; 1 μM, Day 9) was 48 pg/ml Culture Medium and 44 pg/ml Culture Medium and 49 pg/ml Culture Medium and 41 pg/ml Culture Medium, the “Intracellular HBV DNA, Mono” value (Hepatitis B virus [3]; 1 μM) was 2.7 pg/μg Cell DNA and 2.2 pg/μg Cell DNA and 2.3 pg/μg Cell DNA and 2.4 pg/μg Cell DNA and the “Intracellular HBV DNA, RI” value (Hepatitis B virus [3]; 1 μM) was 70 pg/μg Cell DNA and 75 pg/μg Cell DNA and 63 pg/μg Cell DNA and 68 pg/μg Cell DNA. The “HBV Virion DNA” value (Hepatitis B virus [3]; 10 μM, Day 0) was 49 pg/ml Culture Medium and 63 pg/ml Culture Medium and 70 pg/ml Culture Medium and 65 pg/ml Culture Medium, the “HBV Virion DNA” value (Hepatitis B virus [3]; 10 μM, Day 3) was 70 pg/ml Culture Medium and 64 pg/ml Culture Medium and 67 pg/ml Culture Medium and 59 pg/ml Culture Medium and the “HBV Virion DNA” value (Hepatitis B virus [3]; 10 μM, Day 6) was 35 pg/ml Culture Medium and 28 pg/ml Culture Medium and 33 pg/ml Culture Medium. The “HBV Virion DNA” value (Hepatitis B virus [3]; 10 μM, Day 9, 0 = undetectable, cut-off 0.1 pg DNA/ml) was 8 pg/ml Culture Medium and 9 pg/ml Culture Medium and 7 pg/ml Culture Medium, the “Intracellular HBV DNA, Mono” value (Hepatitis B virus [3]; 10 μM) was 2.3 pg/μg Cell DNA and 2.6 pg/μg Cell DNA and 2.5 pg/μg Cell DNA and the “Intracellular HBV DNA, RI” value (Hepatitis B virus [3]; 10 μM) was 11 pg/μg Cell DNA and 13 pg/μg Cell DNA and 10 pg/μg Cell DNA and 14 pg/μg Cell DNA. The cytotoxicity at 216 h, 30 µM [4] was 33%, the viability at 216 h, 3 µM [4] was 98 ± 2% and the viability at 216 h, 10 µM [4] was 102 ± 6%. The viability at 216 h, 30 µM [4] was 67 ± 3%, the viability at 216 h, 100 µM [4] was 24 ± 2% and the viability at 216 h, 3 µM [5] was 98 ± 2%. The viability at 216 h, 10 µM [5] was 102 ± 6%, the viability at 216 h, 30 µM [5] was 67 ± 3% and the viability at 216 h, 100 µM [5] was 24 ± 2%. For the same molecule, the “Cell toxicity (greater than 50% depression of dye uptake)” value [6] was “did not occur”.
